From patent US20260102383A1, “LPAR1 Inhibitors” (AbbVie Inc., priority 2024, published 2026) come the findings set out here.

A word on the IC50: it is the concentration at which inhibition is half-maximal.

The assay has as its target T1, human LPAR1 (Homo sapiens, UniProt Q92633).
T1 construct: host or cells: TangoEDG2-bla U2OS cells
As to the kind of experiment: Arrestin assay (Arrestin Reporter EDG2-bla U2OS), inhibition of LPA-stimulated signal. In kind it is cell-based. The following applies: TangoEDG2-bla U2OS cells expressing human LPAR1; 0.25 μM LPA; read-out: Arrestin Reporter EDG2-bla U2OS Human Merged IC50. As for the experimental part:
The inhibitory activity of compounds 15, 62, 77, 84 and 169 against LPAR1 was measured using an Arrestin assay in U2OS cells expressing human LPAR1.
FreeStyle media was warmed in a 37° C. water bath. Cryo-preserved vial(s) of TangoEDG2-bla U2OS cells were rapidly thawed in a 37° C. water bath. The thawed cells were added to FreeStyle media and cells were pelleted at 300×g for 5 minutes. The supernatant was aspirated, and cells were resuspended in FreeStyle media. Cell density was adjusted to 0.25×10^6 cells/mL. Cells (1×10^4 in 40 μL) were added to each well of Greiner 384 well black cell plate(s). Cell plate(s) were placed in a humidified 37° C./5% CO2 incubator for 18-20 hours. Dilutions of test compound were prepared at 6× final concentration; 12-point, 3-fold dilutions using HH Buffer (1×HBSS plus 20 mM HEPES). The 6× test compound was then added to the cell plate(s) at 10 μL/well. The final concentration ranged from 10 μM to 0.00006 μM. Cell plate(s) were incubated in a humidified 37° C./5% CO2 incubator for 1 hour. During the incubation, 6×LPA was prepared at 1.5 μM in 0.1% BSA HH Buffer. After the 1-hour incubation of test compound with cells, the LPA was added to the cell plate(s) at 10 μL/well (final LPA concentration of 0.25 μM). Cell plate(s) were returned to a humidified 37° C./5% CO2 incubator for 3 hours. The Development solution was made up per the LiveBLAzerFRET B/G kit protocol. The Development solution was added to the cell plate(s) at 10 μL/well. Cell plates were incubated in the dark at room temperature for 2 hours. Plate(s) were read on an Envision Plate Reader (Perkin Elmer) to read fluorescence; excitation at 409 nm with emission at 460 nm and 530 nm. Raw Data for analysis is the ratio of emission at 460 nm divided by emission 530 nm. The formula used to determine % Inhibition is as follows (1−(Raw Data−Low Average)/(High Average−Low Average))*100. Percent Inhibition was plotted to determine IC50 value with GraphPad Prism 9.5.0 software using Variable slope 4-parameter curve fit analysis.
Additional compounds of the present disclosure were synthesized in a manner similar to the compounds described above and understood by a person of ordinary skill in the art. The inhibitory activity of the compounds of the present disclosure against LPAR1 was measured using the above-referenced Arrestin Assay protocol.

T1 sequence (Q92633 whole entry): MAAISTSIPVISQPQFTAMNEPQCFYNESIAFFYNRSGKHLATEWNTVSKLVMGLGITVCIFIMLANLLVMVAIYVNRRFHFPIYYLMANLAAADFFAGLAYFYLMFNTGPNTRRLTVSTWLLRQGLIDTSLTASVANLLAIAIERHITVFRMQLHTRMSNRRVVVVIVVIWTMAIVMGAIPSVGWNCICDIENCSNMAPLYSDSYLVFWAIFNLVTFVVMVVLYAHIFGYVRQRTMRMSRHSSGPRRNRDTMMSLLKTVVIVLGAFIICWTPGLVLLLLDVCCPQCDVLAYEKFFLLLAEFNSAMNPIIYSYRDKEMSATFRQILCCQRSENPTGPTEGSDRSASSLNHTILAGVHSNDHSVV

As to `CC(C)c1ccnn1C1(C(=O)Nc2ccc(Cl)cc2OC(F)F)CCN([C@H]2C[C@@]3(C[C@H]3C(=O)O)C2)CC1` (relative stereo) [Compound 106, rel-(1R,3r,5S)-5-[4-1[4-chloro-2-(difluoromethoxy)phenyl]carbamoyl]-4-(5-isopropylpyrazol-1-yl)-1-piperidyl]spiro[2.3]hexane-2-carboxylic acid], the IC50 came out at 48.1 nM.
Next, `CC(C)c1ccnn1C1(C(=O)Nc2ccc(Cl)cc2OC(F)F)CCN(C[C@@H](C(=O)O)C2CCOCC2)CC1` (single isomer, unassigned) [Compound 14, (2.5)-3-[4-[[4-chloro-2-(difluoromethoxy)phenyl]carbamoyl]-4-(5-isopropylpyrazol-1-yl)-1-piperidyl]-2-tetrahydropyran-4-yl-propanoic acid]: 33.9 nM.
Next, `COc1cccc([C@H](CN2CCC(C(=O)Nc3ccc(Cl)cc3OC(F)F)(n3nccc3C(C)C)CC2)C(=O)O)c1` (single isomer, unassigned) [Compound 32]: 3.11 nM.
Next, `CC(C)c1ccnn1C1(C(=O)Nc2ccc(Cl)cc2OC(F)F)CCN(C[C@@]2(C(=O)O)CCCCO2)CC1` (single isomer, unassigned) [Compound 38]: 18.8 nM; `CC(C)c1ccnn1C1(C(=O)Nc2ccc(Cl)cc2OC(F)F)CCN(C[C@]2(C(=O)O)CCCCO2)CC1` (single isomer, unassigned) [Compound 39, (2.5)-2-[[4-[[4-chloro-2-(difluoromethoxy)phenyl]carbamoyl]-4-(5-isopropylpyrazol-1-yl)-1-piperidyl]methyl]tetrahydropyran-2-carboxylic acid]: 13 nM.
Take `CC(C)c1ccnn1C1(C(=O)Nc2ccc(Cl)cc2OC(F)F)CCN([C@H]2C[C@@H](C(=O)O)C2)CC1` (single isomer, unassigned) [Compound 61, (1s,3s)-3-[4-[[4-chloro-2-(difluoromethoxy)phenyl]carbamoyl]-4-(5-isopropylpyrazol-1-yl)-1-piperidyl]cyclobutanecarboxylic acid]: the half-maximal inhibitory concentration (IC50) was 34.5 nM.
The result for `CC(C)c1ccnn1C1(C(=O)Nc2ccc(Cl)cc2OC(F)F)CCN(C[C@@](C)(C(=O)O)C2CCOCC2)CC1` (single isomer, unassigned) [Compound 78, (2.5)-3-[4-[[4-chloro-2-(difluoromethoxy)phenyl]carbamoyl]-4-(5-isopropylpyrazol-1-yl)-1-piperidyl]-2-methyl-2-tetrahydropyran-4-yl-propanoic acid] reads 48.3 nM; that for `CC(C)c1ccnn1C1(C(=O)Nc2ccc(Cl)cc2OC(F)F)CCN(C[C@]2(C(=O)O)CC[C@@H](O)CC2)CC1` (single isomer, unassigned) [Compound 95, (1s,4s)-1-[[4-[[4-chloro-2-(difluoromethoxy)phenyl]carbamoyl]-4-(5-isopropylpyrazol-1-yl)-1-piperidyl]methyl]-4-hydroxy-cyclohexanecarboxylic acid], 11.7 nM; that for `COC[C@@H](CN1CCC(C(=O)Nc2ccc(Cl)cc2OC(F)F)(n2nccc2C(C)C)CC1)C(=O)O` (single isomer, unassigned) [Compound 119], 15.5 nM.
`CC(C)c1c(F)cnn1C1(C(=O)Nc2ccc(Cl)cc2OC(F)F)CCN([C@H]2C[C@@H](C(=O)O)C2)CC1` (single isomer, unassigned) [Compound 123, (1s,3s)-3-[4-[[4-chloro-2-(difluoromethoxy)phenyl]carbamoyl]-4-(4-fluoro-S-isopropyl-pyrazol-1-yl)-1-piperidyl]cyclobutanecarboxylic acid]: the IC50 stood at 38.9 nM.
In the case of `CC(C)c1ccnn1C1(C(=O)Nc2ccc(Cl)cc2OC(F)F)CCN([C@@H]2CO[C@H](C(=O)O)C2)CC1` (single isomer, unassigned) [Compound 137], the IC50 was 57.2 nM.
Next, `CC(C)c1ccnn1C1(C(=O)Nc2ccc(Cl)cc2OC(F)F)CCN([C@H]2CO[C@H](C(=O)O)C2)CC1` (single isomer, unassigned) [Compound 140]: 132 nM; `CC(C)c1ccnn1C1(C(=O)Nc2ccc(Cl)cc2OC(F)F)CCN(C[C@@H](C(=O)O)[C@H]2CCOC2)CC1` (single isomer, unassigned) [Compound 149]: 34.5 nM.
Next, `CC(C)c1ccnn1C1(C(=O)Nc2ccc(Cl)cc2OC(F)F)CCN(C[C@@H](C(=O)O)N2CCOCC2)CC1` (single isomer, unassigned) [Compound 150, (25)-3-[4-[[4-chloro-2-(difluoromethoxy)phenyl]carbamoyl]-4-(5-isopropylpyrazol-1-yl)-1-piperidyl]-2-morpholino-propanoic acid]: 99.5 nM.
The result for `CC(C)c1ccnn1C1(C(=O)Nc2ccc(Cl)cc2OC(F)F)CCN(C[C@@H](C(=O)O)[C@@H]2CCOC2)CC1` (single isomer, unassigned) [Compound 151] reads 75 nM; that for `CC(C)c1ccnn1C1(C(=O)Nc2ccc(Cl)cc2OC(F)F)CCN(C[C@H](C(=O)O)[C@@H]2CCOC2)CC1` (single isomer, unassigned) [Compound 152], 41.1 nM.
As for `CC(C)c1ccnn1C1(C(=O)Nc2ccc(Cl)cc2OC(F)F)CCN(C[C@H](C(=O)O)c2cnn(C)c2)CC1` (single isomer, unassigned) [Compound 154], the IC50 turned out to be 64.1 nM.
As for `CC(C)c1ccnn1C1(C(=O)Nc2ccc(Cl)cc2OC(F)F)CCN(C[C@H](CC#N)C(=O)O)CC1` (single isomer, unassigned) [Compound 163], the IC50 worked out at 38.5 nM.
The result for `COC[C@H](CN1CCC(C(=O)Nc2ccc(Cl)cc2OC(F)F)(n2ncc(F)c2C(C)C)CC1)C(=O)O` (single isomer, unassigned) [Compound 170] reads 33.1 nM; that for `CO[C@H]1CC[C@@H]([C@H](CN2CCC(C(=O)Nc3ccc(Cl)cc3OC(F)F)(n3nccc3C(C)C)CC2)C(=O)O)CC1` (single isomer, unassigned) [Compound 184], 77.3 nM.
For `CO[C@H]1CC[C@H]([C@H](CN2CCC(C(=O)Nc3ccc(Cl)cc3OC(F)F)(n3nccc3C(C)C)CC2)C(=O)O)CC1` (single isomer, unassigned) [Compound 185], the IC50 was found to be 57.4 nM.
The result for `CC(C)c1ccnn1C1(C(=O)Nc2ccc(Cl)cc2OC(F)F)CCN([C@H]2CC[C@H](C(=O)O)OC2)CC1` (single isomer, unassigned) [Compound 192] reads 65.6 nM; that for `CO[C@]1(C(=O)O)C[C@@H](N2CCC(C(=O)Nc3ccc(Cl)cc3OC(F)F)(n3nccc3C(C)C)CC2)C1` (single isomer, unassigned) [Compound 194, (1r,3r)-3-[4-[[4-chloro-2-(difluoromethoxy)phenyl]carbamoyl]-4-(5-isopropylpyrazol-1-yl)-1-piperidyl]-1-methoxy-cyclobutanecarboxylic acid], 90.6 nM.
The result for `CC(C)c1c(Cl)cnn1C1(C(=O)Nc2ccc(Cl)cc2OC(F)F)CCN(C[C@@H](C(=O)O)C2CCOCC2)CC1` (single isomer, unassigned) [Compound 197] reads 14 nM; that for `CC(C)c1c(Cl)cnn1C1(C(=O)Nc2ccc(Cl)cc2OC(F)F)CCN(C[C@H](C(=O)O)C2CCOCC2)CC1` (single isomer, unassigned) [Compound 198], 31.2 nM; that for `CC(C)c1ccnn1C1(C(=O)Nc2ccc(Cl)cc2OC(F)F)CCN(CC2(C(=O)O)CCOC2)CC1` (stereo in doubt) [Compound 23, (3S)-3-[[4-[[4-chloro-2-(difluoromethoxy)phenyl]carbamoyl]-4-(5-isopropylpyrazol-1-yl)-1-piperidyl]methyl]tetrahydrofuran-3-carboxylic acid], 28.4 nM.
The result for `CC(C)c1ccnn1C1(C(=O)Nc2ccc(Cl)cc2OC(F)F)CCN(CC(=O)O)CC1` [Compound 1, 2-[4-[[4-chloro-2-(difluoromethoxy)phenyl]carbamoyl]-4-(5-isopropylpyrazol-1-yl)-1-piperidyl]acetic acid] reads 54.8 nM; that for `CC(C)c1ccnn1C1(C(=O)Nc2ccc(Cl)cc2OC(F)F)CCN(CCC(C)(C)C(=O)O)CC1` [Compound 2, 4-[4-[[4-chloro-2-(difluoromethoxy)phenyl]carbamoyl]-4-(5-isopropylpyrazol-1-yl)-1-piperidyl]-2,2-dimethyl-butanoic acid], 50.3 nM.
